From ChEMBL document CHEMBL1139936, “Annonaceous acetogenin mimics bearing a terminal lactam and their cytotoxicity against cancer cells” (Bioorg Med Chem Lett, 2007)
Calls of active or inactive are those of the source. The calls are words filed in the database; no cut-off is given here.

Experiments:
[1] = (§1) Cytotoxicity against human BEL-7404 cells after 48 hrs by MTT assay; assay type: functional, cell-based; settings: BEL-7404, 48 h
SK-HEP1 = test: Cytotoxicity against human SKHep1 cells after 48 hrs by MTT assay; assay type: functional, cell-based; settings: for IC50: SK-HEP1, 48 h
B16 = test: Cytotoxicity against […] B16 cells after 48 hrs by MTT assay; assay type: functional, cell-based; settings: Mus musculus; for IC50: B16, 48 h
[2] = Cytotoxicity against human Chang cells after 48 hrs by MTT assay; assay type: cell-based
BEL-7404 = test: as §1; assay type: functional, cell-based

Row | SMILES | IC50 [1] [nM] | IC50 (SK-HEP1) [nM] | IC50 (B16) [nM] | Activity [2] | Activity (SK-HEP1) | Activity (B16) | Activity (BEL-7404)
1 | CCCCCCCCCC[C@H](O)COCCOC[C@@H](O)CCCCCCCCCCCCC1=C[C@H](C)N(C)C1=O | 234 | 589 | 13 | Not Active | – | – | –
2 | CCCCCCCCCC[C@H](O)COCCOC[C@@H](O)CCCCCCCCCCCCC1=C[C@H](C)NC1=O | 2200 | – | 35 | Not Active | inactive | – | –
3 | CCCCCCCCCC[C@H](O)COCCOC[C@@H](O)CCCCCCCCCCCCC1=C[C@H](C)N(CCCNC(=O)CCCCCNC(=O)CCCCCNC(=O)OC(C)(C)C)C1=O | 2500 | – | – | Not Active | inactive | inactive | –
4 | CCCCCCCCCC[C@H](O)COCCOC[C@@H](O)CCCCCCCCCCCCC1=C[C@H](C)OC1=O | 41 | 65 | 35 | Not Active | – | – | –
5 | CCCCCCCCCC[C@H](O)COCCOC[C@@H](O)CCCCCCCCCCCCC1=C[C@H](C)N(CCCNC(=O)CCCCCNC(=S)Nc2ccc3c(c2)C(=O)OC32c3ccc(O)cc3Oc3cc(O)ccc32)C1=O | – | – | – | Not Active | inactive | inactive | inactive
6 | CCCCCCCCCC[C@H](O)COCCOC[C@@H](O)CCCCCCCCCCCCC1=CC(C)(C)N(C)C1=O | 845 | 583 | 478 | Not Active | – | – | –
7 | CCCCCCCCCC[C@H](O)COCCOC[C@@H](O)CCCCCCCCCCCCC1=C[C@H](C)N(CCCNC(=O)C(F)(F)F)C1=O | 1350 | – | 995 | Not Active | inactive | – | –
8 | CCCCCCCCCC[C@H](O)COCCOC[C@@H](O)CCCCCCCCCCCCC1=CCN(C)C1=O | 168 | 104 | 168 | Not Active | – | – | –
9 | CCCCCCCCCC[C@H](O)COCCOC[C@@H](O)CCCCCCCCCCCCC1=C[C@H](C)N(CCCNC(=O)CCCCCNC(=O)OC(C)(C)C)C1=O | 3200 | – | – | Not Active | inactive | inactive | –
